The numbers were not newly measured in article PMC10784415 (Developmental dynamics : an official publication of the …, 2023), which cites them from elsewhere.

This data set deals with tooth buds. As to conditions: animal studies; cited from earlier work.

Take `COc1cc2nccc(Oc3ccc(NC(=O)Nc4cc(C)on4)c(Cl)c3)c2cc1OC` [tivozanib]: the “Effect on tooth buds” value was “shallower or narrower tooth buds”.
